{
  "source": "patent US9371337B2",
  "about": "“β-lactamase inhibitors” (The Regents of the University of California, priority 2011, dated 2016)",
  "key": {"[1]": {"test_system": "E. coli overproducing chromosomally-mediated class C β-lactamase", "test": "MIC of third-generation cephalosporins alone and with compounds 4 or 9 (Table 3)", "type": "cell-based, Escherichia coli", "settings": "ratio 1:1", "text": "(§1) Antimicrobial activity was investigated quantitatively to determine the minimum inhibitory concentrations (MICs) of the β-lactam/inhibitor combination necessary to inhibit the bacterial growth (Table 3). The MICs of β-lactams alone against the strains corresponded to a high level of resistance according to Clinical and Laboratory Standards Institute (CLSI) standards. (Clinical and Laboratory Standards Institute, Performance standards for antimicrobial susceptibility testing, 20th Informational Supplement, M100-S20 2010) The compounds had no measurable antibiotic activity when used alone.\n(§2) Susceptibility testing was performed and interpreted following the guidelines of CLSI. (Clinical and Laboratory Standards Institute, Performance standards for antimicrobial susceptibility testing, 20th Informational Supplement, M100-S20 2010) The compounds were dissolved in 50% DMSO, and dilutions were performed using Muller-Hinton medium. An adequate final concentration was obtained to determine the minimum inhibitory concentrations (MICs). The concentration of DMSO was maintained below 5%. The inhibitors were tested for synergy with the third-generation β-lactams ceftazidime and cefotaxime against several clinical bacteria. […] Each value reported reflects the average of three independent experiments. […] A Klebsiella pneumoniae isolate produced the inducible plasmid-mediated class C enzyme DHA-1. The Friedman's test and the Wilcoxon signed rank test were used to compare MIC values. Statistical significance was established at p<0.05."}, "[2]": {"test_system": "E. coli producing plasmid-mediated class A β-lactamase CTX-M-14", "test": "MIC of third-generation cephalosporins alone and with compounds 4 or 9 (Table 3)", "type": "cell-based, Escherichia coli", "settings": "ratio 1:1", "text": "as §1, §2"}, "[3]": {"target": "T1, AmpC β-lactamase (Escherichia coli, UniProt P00811)", "T1 construct": "made in house", "T1 sequence (P00811 20-377)": "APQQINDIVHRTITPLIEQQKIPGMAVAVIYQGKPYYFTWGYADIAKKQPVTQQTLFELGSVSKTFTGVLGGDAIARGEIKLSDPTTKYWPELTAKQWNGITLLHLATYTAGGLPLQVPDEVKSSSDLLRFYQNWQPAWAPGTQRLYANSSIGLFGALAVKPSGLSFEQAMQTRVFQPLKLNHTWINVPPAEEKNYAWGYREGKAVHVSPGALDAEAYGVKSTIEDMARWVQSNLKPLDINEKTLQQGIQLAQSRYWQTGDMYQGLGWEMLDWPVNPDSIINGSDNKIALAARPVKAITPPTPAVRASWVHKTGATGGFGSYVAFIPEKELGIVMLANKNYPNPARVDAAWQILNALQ", "type": "biochemical", "settings": "enzyme incubation and dilution experiments"}, "[4]": {"test_system": "Klebsiella pneumoniae strain producing AmpC β-lactamase", "test": "Disk diffusion plate assay", "type": "cell-based", "text": "(§3) FIG. 9. Inhibition of bacterial growth and potentiation effect. A) Activity of compounds 4 (CP4) and 9 (CP9) in combination with ceftazidime (CAZ) and alone against a Klebsiella pneumoniae strain producing AmpC β-lactamase. Solvent (SOL):DMSO/Water 1:1. B) Potentiation of β-lactamase inhibition in an E. cloacae strain in which ampC gene expression is inducible by β-lactam antibiotics, such as cefoxitin (FOX). C) Potentiation of β-lactamase inhibition in a Klebsiella pneumoniae isolate producing the inducible class C enzyme DHA-1.\nFor disk diffusion plate assays, bacterial strains were diluted in sterile water to a turbidity equivalent to 0.5 McFarland turbidity standards. After a subsequent 10-fold dilution, the bacterial suspensions were inoculated on Mueller Hinton agar. The plates were dried for 10 min before applying the disks containing cefotaxime or ceftazidime antibiotics (30 μg) or the inhibitor (30 μg) or both. After overnight incubation at 37° C., the zones of bacterial-growth inhibition were measured."}, "[5]": {"target": "T2, α-chymotrypsin (bovine pancreatic) (Bos taurus, UniProt P00766)", "T2 construct": "purchased Sigma-Aldrich", "test": "α-Chymotrypsin inhibition", "type": "biochemical"}, "[6]": {"test_system": "K. pneumoniae and E. cloacae strains in which AmpC expression is inducible", "test": "β-lactamase induction experiments (disk potentiation of ceftazidime)", "type": "cell-based, Klebsiella pneumoniae; Enterobacter cloacae", "settings": "64 μg of compounds or 32 μg cefoxitin per disk, ceftazidime disk 30 μg", "text": "as §3\nA traditional β-lactam resistance mechanism is the upregulation of β-lactamase-encoding gene transcription caused by β-lactams such as cefoxitin and the β-lactamase inhibitor clavulanate. To test the role of compounds on the induction of AmpC expression, we investigated their ability to potentiate the action of the β-lactam ceftazidime. We compared the potentiation effect of compounds with that of cefoxitin (FIGS. 9B and 9C). Agar plates were inoculated with K. pneumoniae and E. cloacae strains in which AmpC expression is inducible. A ceftazidime-containing disk and a disk containing the inhibitors (cefoxitin or compounds 4 and 9) were placed on each plate. As ceftazidime diffuses from disks into the agar, a clear zone is created around the ceftazidime-containing disk, indicating where bacteria are unable to grow. The shape of this halo in the vicinity of the inhibitor-containing disk indicated the effect of these compounds on the induction of AmpC. The inhibition halos normally surrounding ceftazidime were substantially diminished in the regions nearest to the cefoxitin disk.\nFor the β-lactamase induction experiments, plates of Mueller Hinton agar were inoculated with two clinical strains (E. cloacae and K. pneumoniae) in which production of AmpC-type enzyme is inducible by β-lactam antibiotics. Inhibitors were added to blank disks, and the final content of inhibitor per disk was 64 μg of compounds and 32 μg cefoxitin. Disks of ceftazidime contained 30 μg of antibiotic."}, "[7]": {"test_system": "C. freundii overproducing chromosomally-mediated class C β-lactamase", "test": "MIC of third-generation cephalosporins alone and with compounds 4 or 9 (Table 3)", "type": "cell-based, Citrobacter freundii", "settings": "ratio 1:1", "text": "as §1, §2"}, "[8]": {"test_system": "P. aeruginosa overproducing chromosomally-mediated class C β-lactamase", "test": "MIC of third-generation cephalosporins alone and with compounds 4 or 9 (Table 3)", "type": "cell-based, Pseudomonas aeruginosa", "settings": "ratio 1:1", "text": "as §1, §2"}, "[9]": {"target": "CTX-M-9 β-lactamase (Escherichia coli, UniProt Q9L5C8)", "sequence (Q9L5C8 29-291)": "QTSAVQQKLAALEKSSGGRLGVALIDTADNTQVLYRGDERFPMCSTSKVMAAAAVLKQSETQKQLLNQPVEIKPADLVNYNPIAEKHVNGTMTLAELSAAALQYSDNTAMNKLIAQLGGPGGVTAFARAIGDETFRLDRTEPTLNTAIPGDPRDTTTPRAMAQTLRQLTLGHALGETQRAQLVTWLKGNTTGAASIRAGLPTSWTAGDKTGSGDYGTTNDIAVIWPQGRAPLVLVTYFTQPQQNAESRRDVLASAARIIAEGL", "test": "biochemical", "type": "biochemical"}, "[10]": {"test_system": "E. cloacae overproducing chromosomally-mediated class C β-lactamase", "test": "MIC of third-generation cephalosporins alone and with compounds 4 or 9 (Table 3)", "type": "cell-based, Enterobacter cloacae", "settings": "ratio 1:1", "text": "as §1, §2"}, "[11]": {"target": "cruzain (Trypanosoma cruzi, UniProt P25779)", "sequence (P25779 123-337 limits assumed)": "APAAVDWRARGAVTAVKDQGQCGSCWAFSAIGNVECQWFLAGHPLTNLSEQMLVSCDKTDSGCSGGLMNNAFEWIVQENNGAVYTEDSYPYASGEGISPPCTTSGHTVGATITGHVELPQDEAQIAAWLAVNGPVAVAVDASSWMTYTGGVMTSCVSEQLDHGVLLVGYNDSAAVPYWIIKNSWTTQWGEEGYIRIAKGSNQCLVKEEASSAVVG", "test": "Cruzain inhibition, Z-FR-AMC cleavage", "type": "biochemical", "experimental": "Cruzain assays were performed in 100 mM sodium acetate pH 5.5 with 0.01% Triton-X and 5 mM dithiothreitol. Cruzain activity was measured in a 96-well format fluorimetric assay, monitoring the cleavage of the substrate Z-Phe-Arg-aminomethylcoumarin (Z-FR-AMC), in a SpectraMax M5, Molecular Devices spectrofluorimeter."}, "[12]": {"test_system": "K. pneumoniae producing the plasmid-mediated class C β-lactamase DHA-1", "test": "MIC of third-generation cephalosporins alone and with compounds 4 or 9 (Table 3)", "type": "cell-based, Klebsiella pneumoniae", "settings": "ratio 1:1", "text": "as §1, §2"}, "[13]": {"target": "T3, Elastase (Sus scrofa, UniProt P00772)", "T3 construct": "IC50 (Estimated from single concentration measurement); Ki", "T3 sequence (P00772 27-266)": "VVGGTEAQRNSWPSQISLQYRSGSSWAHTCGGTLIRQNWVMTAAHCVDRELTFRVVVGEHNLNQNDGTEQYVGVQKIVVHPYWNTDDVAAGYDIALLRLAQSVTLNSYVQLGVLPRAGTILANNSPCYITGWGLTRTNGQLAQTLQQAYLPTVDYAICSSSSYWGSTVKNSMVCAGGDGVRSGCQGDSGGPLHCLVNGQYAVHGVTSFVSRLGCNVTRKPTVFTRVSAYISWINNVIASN", "test": "Elastase inhibition", "type": "biochemical", "text": "To assess the selectivity of the new molecules we determined Ki values against three common serine proteases, Trypsin, Elastase and α-Chymotrypsin, as well as that of a class A β-lactamase, CTX-M-9 (Table 10) (Pouvreau L, et al. (1998), FEBS Lett 423:167-172; Del Mar E G, et al. (1980), Biochemistry 19:468-472; Rodriguez-Martinez J A, et al. (2009), Biotechnol Lett 31:883-887; Chen Y, et al. (2005), J Mol Biol 348:349-362)."}, "[14]": {"target": "T1, AmpC β-lactamase", "test": "biochemical", "type": "biochemical"}, "[15]": {"target": "T4, Trypsin (UniProt P00760)", "T4 construct": "IC50 (Estimated from single concentration measurement); Ki", "T4 sequence (P00760 1-246)": "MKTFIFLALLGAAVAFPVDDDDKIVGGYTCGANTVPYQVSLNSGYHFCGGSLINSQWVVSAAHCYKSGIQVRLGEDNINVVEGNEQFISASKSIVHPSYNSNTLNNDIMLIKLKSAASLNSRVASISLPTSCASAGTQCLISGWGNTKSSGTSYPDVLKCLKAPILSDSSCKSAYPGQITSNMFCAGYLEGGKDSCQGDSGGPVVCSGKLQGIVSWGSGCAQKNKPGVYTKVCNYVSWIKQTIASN", "test": "Trypsin inhibition", "type": "biochemical"}, "[16]": {"settings": "Table 8, read-out: Ki vs CTX-M-9"}, "[17]": {"settings": "Table 4e, read-out: IC50 (Estimated from single concentration measurement)"}, "[18]": {"settings": "Table 4f, read-out: IC50 (from multi- or single concentration measurements)"}, "[19]": {"settings": "Table 4g, read-out: Ki (from multi- or single concentration measurements)"}},
  "note": "Like-named read-outs stand apart in the source and are kept apart here.",
  "data": [
    {"molecule": "O=C(O)c1ccc(CS(=O)(=O)NCB(O)O)cc1", "note": "[Compound 9, [(4-carboxyphenyl)methanesulfonylamino]methaneboronic acid]", "values": [
      {"measurement": "MIC of cefotaxime with compound", "setting": "[1]; cefotaxime + compound", "result": 2, "unit": "µg/mL"},
      {"measurement": "MIC of ceftazidime with compound", "setting": "[1]; ceftazidime + compound", "result": 8, "unit": "µg/mL"},
      {"measurement": "MIC of cefotaxime with compound", "setting": "[2]; cefotaxime + compound", "result": 8, "unit": "µg/mL"},
      {"measurement": "MIC of ceftazidime with compound", "setting": "[2]; ceftazidime + compound", "result": 1, "unit": "µg/mL"},
      {"measurement": "time dependence of inhibition (incubation effect, off-rate)", "setting": "[3]", "result": "no measurable time dependence"},
      {"measurement": "inhibition of bacterial growth in combination with ceftazidime", "setting": "[4]; disk with ceftazidime (30 μg) and inhibitor (30 μg)", "result": "large inhibition halo"},
      {"measurement": "activity on bacteria growth, compound alone", "setting": "[4]; disk with inhibitor alone (30 μg)", "result": "little or no detectable activity"},
      {"measurement": "inhibition at 100 µM", "setting": "[5]; 100 μM", "result": "no measurable inhibition"},
      {"measurement": "IC50", "setting": "[5]; read-out: IC50", "result": "> 500", "unit": "µM"},
      {"measurement": "effect on the ceftazidime inhibition halo (induction of AmpC)", "setting": "[6]", "result": "synergic picture"},
      {"measurement": "MIC of cefotaxime with compound", "setting": "[7]; cefotaxime + compound", "result": 4, "unit": "µg/mL"},
      {"measurement": "MIC of ceftazidime with compound", "setting": "[7]; ceftazidime + compound", "result": 4, "unit": "µg/mL"},
      {"measurement": "MIC of cefotaxime with compound", "setting": "[8]; cefotaxime + compound", "result": 32, "unit": "µg/mL"},
      {"measurement": "MIC of ceftazidime with compound", "setting": "[8]; ceftazidime + compound", "result": 8, "unit": "µg/mL"},
      {"measurement": "IC50", "setting": "[9]; Table 4a, read-out: IC50", "result": 1.5, "unit": "µM"},
      {"measurement": "Ki", "setting": "[9]; [16]", "result": 0.55, "unit": "µM"},
      {"measurement": "MIC of cefotaxime with compound", "setting": "[10]; cefotaxime + compound", "result": 8, "unit": "µg/mL"},
      {"measurement": "MIC of ceftazidime with compound", "setting": "[10]; ceftazidime + compound", "result": 4, "unit": "µg/mL"},
      {"measurement": "inhibition at 100 µM", "setting": "[11]; 100 μM", "result": "no measurable inhibition"},
      {"measurement": "IC50", "setting": "[11]; read-out: IC50", "result": "> 500", "unit": "µM"},
      {"measurement": "MIC of cefotaxime with compound", "setting": "[12]; cefotaxime + compound", "result": 2, "unit": "µg/mL"},
      {"measurement": "MIC of ceftazidime with compound", "setting": "[12]; ceftazidime + compound", "result": 4, "unit": "µg/mL"}
    ]},
    {"molecule": "Pinacol(chloromethanesulfonylamino)methaneboronate [CR70]", "values": [
      {"measurement": "Percentage activity with 100 μM inhibitor", "setting": "[5]; Table 4b, 100 μM inhibitor", "result": 90},
      {"measurement": "Percentage inhibition with 100 μM inhibitor", "setting": "[5]; Table 4c, 100 μM inhibitor", "result": 10},
      {"measurement": "potency estimated from few doses", "setting": "[5]; [17]", "result": 900, "unit": "µM"},
      {"measurement": "Percentage inhibition with 100 μM inhibitor", "setting": "[13]", "result": 90},
      {"measurement": "Percentage activity with 100 μM inhibitor", "setting": "[13]; Table 4b, 100 μM inhibitor", "result": 10},
      {"measurement": "potency estimated from few doses", "setting": "[13]; [17]", "result": 11, "unit": "µM"},
      {"measurement": "IC50", "setting": "[14]; [18]", "result": 1.55, "unit": "µM"},
      {"measurement": "Ki", "setting": "[14]; [19]", "result": 0.3, "unit": "µM"},
      {"measurement": "Ki", "setting": "[14]; Table 7, read-out: Ki Vs AmpC", "result": 0.31, "unit": "µM"},
      {"measurement": "Ki", "setting": "[14]; Table 8, read-out: Ki vs AmpC", "result": 0.31, "unit": "µM"},
      {"measurement": "potency estimated from few doses", "setting": "[9]; [17]", "result": 16, "unit": "µM"},
      {"measurement": "IC50", "setting": "[9]; [18]", "result": 16, "unit": "µM"},
      {"measurement": "Ki", "setting": "[9]; [19]", "result": 5.9, "unit": "µM"},
      {"measurement": "Ki", "setting": "[9]; [16]", "result": 5.9, "unit": "µM"},
      {"measurement": "Percentage inhibition with 16 μM inhibitor", "setting": "[9]; Table 4d, 16 μM inhibitor", "result": 50},
      {"measurement": "Percentage activity with 100 μM inhibitor", "setting": "[15]; Table 4b, 100 μM inhibitor", "result": 97},
      {"measurement": "Percentage inhibition with 100 μM inhibitor", "setting": "[15]; Table 4c, 100 μM inhibitor", "result": 3},
      {"measurement": "potency estimated from few doses", "setting": "[15]; [17]", "result": 3230, "unit": "µM"}
    ]}
  ]
}
